# Results from ChEMBL document CHEMBL5113431, “Synthesis and initial in vitro evaluation of PSMA-targeting ligands with a modified aromatic moiety at the lysine ε-nitrogen atom” (Bioorg Med Chem Lett, 2022).
# Key:
# [1] = biological target: Glutamate carboxypeptidase 2 (Homo sapiens, UniProt Q04609); assay: Inhibition of PSMA in human LNCaP cell extracts using NAAG as substrate by amplex red reagent based assay; format: cell-free
# [2] = Drug uptake in PSMA overexpressing human LNCaP cells at 4 to 40 nM by flow cytometry; format: ADME, cell-based; settings: 0.04 µM, dose 4-40 nM
# Sequence of Glutamate carboxypeptidase 2 (Q04609 whole entry): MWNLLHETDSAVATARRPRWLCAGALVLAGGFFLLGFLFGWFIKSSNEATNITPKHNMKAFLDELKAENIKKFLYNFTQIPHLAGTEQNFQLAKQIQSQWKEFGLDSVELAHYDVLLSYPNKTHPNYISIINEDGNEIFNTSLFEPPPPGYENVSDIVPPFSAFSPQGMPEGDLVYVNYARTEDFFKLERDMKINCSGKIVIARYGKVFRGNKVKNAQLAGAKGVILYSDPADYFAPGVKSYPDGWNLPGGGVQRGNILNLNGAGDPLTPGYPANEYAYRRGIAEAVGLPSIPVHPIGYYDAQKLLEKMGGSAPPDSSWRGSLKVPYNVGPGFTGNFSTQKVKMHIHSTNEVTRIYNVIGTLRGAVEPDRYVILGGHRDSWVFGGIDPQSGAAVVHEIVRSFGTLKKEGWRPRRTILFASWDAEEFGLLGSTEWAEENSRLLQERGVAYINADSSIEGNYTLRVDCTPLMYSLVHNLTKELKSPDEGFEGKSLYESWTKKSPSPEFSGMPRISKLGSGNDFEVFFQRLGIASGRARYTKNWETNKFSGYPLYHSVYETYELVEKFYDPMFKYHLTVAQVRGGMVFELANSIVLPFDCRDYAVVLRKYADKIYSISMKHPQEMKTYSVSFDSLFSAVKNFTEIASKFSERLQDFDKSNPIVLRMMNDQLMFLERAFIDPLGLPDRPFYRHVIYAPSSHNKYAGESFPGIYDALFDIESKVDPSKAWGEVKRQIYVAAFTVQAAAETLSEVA
compound,measurement,setting,value
[N-]=[N+]=NCCCNC(=O)[C@H](Cc1ccc(O)cc1)NC(=O)[C@H](Cc1ccccc1)NC(=O)CCC(=O)NCCCCCC(=O)N(CCCC[C@H](NC(=O)N[C@@H](CCC(=O)O)C(=O)O)C(=O)O)Cc1ccccc1[N+](=O)[O-],IC50,[1],101 nM
[N-]=[N+]=NCCCNC(=O)[C@H](Cc1ccc(O)cc1)NC(=O)[C@H](Cc1ccccc1)NC(=O)CCC(=O)NCCCCCC(=O)N(CCCC[C@H](NC(=O)N[C@@H](CCC(=O)O)C(=O)O)C(=O)O)Cc1ccc(C(=O)O)cc1,IC50,[1],19 nM
CN1/C(=C/C=C/C=C/C2=[N+](CCCCCC(=O)NCc3cn(CCCNC(=O)[C@H](Cc4ccccc4)NC(=O)[C@H](Cc4ccccc4)NC(=O)CCC(=O)NCCCCCC(=O)N(CCCC[C@H](NC(=O)N[C@@H](CCC(=O)O)C(=O)O)C(=O)O)Cc4ccccc4[N+](=O)[O-])nn3)c3ccc(S(=O)(=O)[O-])cc3C2(C)C)C(C)(C)c2cc(S(=O)(=O)O)ccc21,Drug uptake,[2],Active
[N-]=[N+]=NCCCNC(=O)[C@H](Cc1ccc(O)c([N+](=O)[O-])c1)NC(=O)[C@H](Cc1ccccc1)NC(=O)CCC(=O)NCCCCCC(=O)N(CCCC[C@H](NC(=O)N[C@@H](CCC(=O)O)C(=O)O)C(=O)O)Cc1cccc(Cl)c1,IC50,[1],1.5 nM
CCOc1ccc(CN(CCCC[C@H](NC(=O)N[C@@H](CCC(=O)O)C(=O)O)C(=O)O)C(=O)CCCCCNC(=O)CCC(=O)N[C@@H](Cc2ccccc2)C(=O)N[C@@H](Cc2ccccc2)C(=O)NCCCN=[N+]=[N-])cc1,IC50,[1],51 nM
CN1/C(=C/C=C/C=C/C2=[N+](CCCCCC(=O)NCc3cn(CCCNC(=O)[C@H](Cc4ccc(O)cc4)NC(=O)[C@H](Cc4ccccc4)NC(=O)CCC(=O)NCCCCCC(=O)N(CCCC[C@H](NC(=O)N[C@@H](CCC(=O)O)C(=O)O)C(=O)O)Cc4cccc(Cl)c4)nn3)c3ccc(S(=O)(=O)[O-])cc3C2(C)C)C(C)(C)c2cc(S(=O)(=O)O)ccc21,Drug uptake,[2],Active
[N-]=[N+]=NCCCNC(=O)[C@H](Cc1ccccc1)NC(=O)[C@H](Cc1ccccc1)NC(=O)CCC(=O)NCCCCCC(=O)N(CCCC[C@H](NC(=O)N[C@@H](CCC(=O)O)C(=O)O)C(=O)O)Cc1ccc(C(=O)O)cc1,IC50,[1],7 nM
[N-]=[N+]=NCCCNC(=O)[C@H](Cc1ccccc1)NC(=O)[C@H](Cc1ccccc1)NC(=O)CCC(=O)NCCCCCC(=O)N(CCCC[C@H](NC(=O)N[C@@H](CCC(=O)O)C(=O)O)C(=O)O)Cc1ccccc1[N+](=O)[O-],IC50,[1],16 nM
COc1ccc(CN(CCCC[C@H](NC(=O)N[C@@H](CCC(=O)O)C(=O)O)C(=O)O)C(=O)CCCCCNC(=O)CCC(=O)N[C@@H](Cc2ccccc2)C(=O)N[C@@H](Cc2ccccc2)C(=O)NCCCN=[N+]=[N-])cc1,IC50,[1],112 nM
COc1ccccc1CN(CCCC[C@H](NC(=O)N[C@@H](CCC(=O)O)C(=O)O)C(=O)O)C(=O)CCCCCNC(=O)CCC(=O)N[C@@H](Cc1ccccc1)C(=O)N[C@@H](Cc1ccccc1)C(=O)NCCCN=[N+]=[N-],IC50,[1],38 nM
COc1ccc(CN(CCCC[C@H](NC(=O)N[C@@H](CCC(=O)O)C(=O)O)C(=O)O)C(=O)CCCCCNC(=O)CCC(=O)N[C@@H](Cc2ccccc2)C(=O)N[C@@H](Cc2ccccc2)C(=O)NCCCN=[N+]=[N-])cc1OC,IC50,[1],88 nM
[N-]=[N+]=NCCCNC(=O)[C@H](Cc1ccc(O)c([N+](=O)[O-])c1)NC(=O)[C@H](Cc1ccccc1)NC(=O)CCC(=O)NCCCCCC(=O)N(CCCC[C@H](NC(=O)N[C@@H](CCC(=O)O)C(=O)O)C(=O)O)Cc1ccc(C(=O)O)cc1,IC50,[1],2.1 nM
[N-]=[N+]=NCCCNC(=O)[C@H](Cc1ccccc1)NC(=O)[C@H](Cc1ccccc1)NC(=O)CCC(=O)NCCCCCC(=O)N(CCCC[C@H](NC(=O)N[C@@H](CCC(=O)O)C(=O)O)C(=O)O)Cc1ccc([N+](=O)[O-])cc1,IC50,[1],35 nM
CN1/C(=C/C=C/C=C/C2=[N+](CCCCCC(=O)NCc3cn(CCCNC(=O)[C@H](Cc4ccccc4)NC(=O)[C@H](Cc4ccccc4)NC(=O)CCC(=O)NCCCCCC(=O)N(CCCC[C@H](NC(=O)N[C@@H](CCC(=O)O)C(=O)O)C(=O)O)Cc4ccc(C(=O)O)cc4)nn3)c3ccc(S(=O)(=O)[O-])cc3C2(C)C)C(C)(C)c2cc(S(=O)(=O)O)ccc21,Drug uptake,[2],Active
COc1ccc(CN(CCCC[C@H](NC(=O)N[C@@H](CCC(=O)O)C(=O)O)C(=O)O)C(=O)CCCCCNC(=O)CCC(=O)N[C@@H](Cc2ccccc2)C(=O)N[C@@H](Cc2ccccc2)C(=O)NCCCN=[N+]=[N-])c(OC)c1,IC50,[1],23 nM
[N-]=[N+]=NCCCNC(=O)[C@H](Cc1ccccc1)NC(=O)[C@H](Cc1ccccc1)NC(=O)CCC(=O)NCCCCCC(=O)N(CCCC[C@H](NC(=O)N[C@@H](CCC(=O)O)C(=O)O)C(=O)O)Cc1cccc([N+](=O)[O-])c1,IC50,[1],23 nM
[N-]=[N+]=NCCCNC(=O)[C@H](Cc1ccccc1)NC(=O)[C@H](Cc1ccccc1)NC(=O)CCC(=O)NCCCCCC(=O)N(CCCC[C@H](NC(=O)N[C@@H](CCC(=O)O)C(=O)O)C(=O)O)Cc1ccc(O)cc1,IC50,[1],24 nM
